Data taken from patent US20030194377A1, “Therapeutic uses of BPI protein products in cystic fibrosis patients” (priority 1996, published 2003).

B1: BPI: bactericidal/permeability-increasing protein isolated from granules of polymorphonuclear leukocytes (protein, UniProt P17213 32-487, looked up)
Bactericidal …: VNPGVVVRISQKGLDYASQQGTAALQKELKRIKIPDYSDSFKIKHLGKGHYSFYSMDIREFQLPSSQISMVPNVGLKFSISNANIKISGKWKAQKRFLKMSGNFDLSIEGMSISADLKLGSNPTSGKPTITCSSCSSHINSVHVHISKSKVGWLIQLFHKKIESALRNKMNSQVCEKVTNSVSSELQPYFQTLPVMTKIDSVAGINYGLVAPPATTAETLDVQMKGEFYSENHHNPPPFAPPVMEFPAAHDRMVYLGLSDYFFNTAGLVYQEAGVLKMTLRDDMIPKESKFRLTTKFFGTFLPEVAKKFPNMKIQIHVSASTPPHLSVQPTGLTFYPAVDVQAFAVLPNSSLASLFLIGMHTTGSMEVSAESNRLVGELKLDRLLLELKHSNIGPFPVELLQDIMNYIVPILVLPRVNEKLQKGFPLPTPARVQLYNVVLQPHQNFLLFGADVVYK
B2: rBPI: recombinant BPI holoprotein (protein, UniProt P17213 32-487, looked up)
Bactericidal …: B1 Bactericidal …

How the values were obtained:
[1] = tested on: Pseudomonas aeruginosa strain isolated from a sputum sample from a CF patient; experiment: Dade MicroScan gram-negative panels supplemented with rBPI21; assay type: cell-based; conditions: for susceptibility of the strain to combination of rBPI21 and antibiotic: supplemented with 16 μg/mL rBPI21 formulated with 0.2% poloxamer 188; for change of susceptibility to antibiotic: in combination with rBPI21 formulated with 0.2% poloxamer 403; for change of antibiotic MIC: in combination with rBPI21 formulated with 0.2% poloxamer 403, versus poloxamer 188 formulation
autoantibodies to BPI = conditions: adult CF patients, Zhao et al. 1996; cited from earlier work
anti-BPI antibodies = experiment: enzyme immunoassay of BPI antibody titers in plasma samples from cystic fibrosis patients; assay type: binding, human; conditions: 11 CF patient plasma samples, dilutions 1/100 to 1/12,800; protein coated as antigen
Experimental: Plasma samples from 11 cystic fibrosis (CF) patients were tested for the presence of anti-BPI antibodies as follows. BPI holoprotein (rBPI) or an N-terminal BPI protein product (rBPI21) were used as antigen sources in an enzyme immunoassay. The wells of Immulon 2 microtiter plates (Dynatech Laboratories Inc., Chantilly, Va.) were coated overnight at 2-8° C. with 50 uL of rBPI21 (0.5 μg/mL) or rBPI (1 μg/mL) diluted in phosphate buffered saline, pH 7.2 (PBS). Unbound BPI was removed and 200 μL of PBS containing 0.1% human serum albumin and 0.1% goat serum was added to all wells. After blocking the plates for 1 hour at room temperature, the wells were washed 3 times with 300 μL of wash buffer (PBS/0.5% Tween 20). Plasma samples were prepared as serial two-fold dilutions from 1/100 to 1/12,800. Plasma samples were diluted in triplicate with PBS containing 1% bovine serum albumin, 1% goat serum and 0.05% Tween 20 (PBS-BSA-GS/Tween). […] The absorbance at 405 nm (A405) was determined for all wells using a Vmax Plate Reader (Molecular Devices Corp., Menlo Park, Calif.).
The mean A405 for all samples were corrected for background by subtracting the mean A405 of wells receiving sample dilution buffer (no plasma) in the primary incubation step. […] An absorbance greater than 0.05 units was considered to be above background.

Molecule | susceptibility of the strain to combination of rBPI21 and antibiotic [1] | change of susceptibility to antibiotic [1] | also measured
sulfamethoxazole/trimethoprim | susceptible | – | –
CC1(C)S[C@@H]2[C@H](NC(=O)C(C(=O)O)c3ccccc3)C(=O)N2[C@H]1C(=O)O (stereo partly shown) [carbenicilin] | susceptible | – | –
CC1(C)S[C@@H]2[C@H](NC(=O)[C@H](NC(=O)N3CCNC3=O)c3ccccc3)C(=O)N2[C@H]1C(=O)O [azlocillin] | – | increased susceptibity | –
O=C(O)c1cn(C2CC2)c2cc(N3CCNCC3)c(F)cc2c1=O [ciprofloxacin] | susceptible | – | change of antibiotic MIC [1]: further decreased the MICs
O=C(N[C@H](CO)[C@H](O)c1ccc([N+](=O)[O-])cc1)C(Cl)Cl [chloramphenicol] | – | increased susceptibity | –
Augmentin | – | increased susceptibity | –
NC[C@H]1O[C@H](O[C@H]2[C@H](O)[C@@H](O[C@H]3O[C@H](CO)[C@@H](O)[C@H](N)[C@H]3O)[C@H](N)C[C@@H]2N)[C@H](N)C[C@@H]1O [tobramycin] | susceptible | – | –
CCN[C@@H]1C[C@H](N)[C@@H](O[C@H]2OC(CN)=CC[C@H]2N)[C@H](O)[C@H]1O[C@H]1OC[C@](C)(O)[C@H](NC)[C@H]1O [netilmicin] | – | increased susceptibity | –
C[C@H]1[C@H](NC(=O)/C(=N\OC(C)(C)C(=O)O)c2csc(N)n2)C(=O)N1S(=O)(=O)O [aztreonam] | susceptible | – | change of antibiotic MIC [1]: further decreased the MICs
B1 | – | – | sera with autoantibodies to BPI (autoantibodies to BPI): 60/66
B2 | – | – | plasma samples with detectable immune response (A405>0.05) (anti-BPI antibodies): 7/11
